# Measurements as given in the supplement of paper PMC10307832.
# Compound: COC1=CC=C(C=C1)CN2C=CC3=C2C=C(C=C3)C(=O)NO + COc1cc2c(Oc3ccc(NC(=O)C4(C(=O)Nc5ccc(F)cc5)CC4)cc3F)ccnc2cc1OCCCN1CCOCC1 [Foretinib] (partner 0.25 µM)
# Test: relative viability (nuclei count vs DMSO), 5 days (fraction); higher = more cells survive
# Conditions: first compound 0.08 µM
# Method in brief: (§1)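 One day after seeding in 1536-well plates, lung cancer cell lines were dosed by pin tool. Dosing was either single-drug or a fixed anchor-drug dose plus five library-drug doses (not always all listed) in √10 steps. After 5 days, nuclei were stained in one fix-and-stain step and counted on 4× images, and relative viability is the nuclei count of treated wells over that of vehicle wells, given as the median of duplicate plates.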
row,Cell Line,relative viability
1,NCI-H1395,0.916
2,HCC-78,0.529
3,EKVX,0.542
4,EPLC-272H,0.293
5,PC-14,0.701
6,LC-2-ad,0.904
7,NCI-H1651,0.646
8,HCC-827,0.834
9,LCLC-103H,0.68
10,RERF-LC-KJ,0.639
11,NCI-H3122,0.942
12,BEN,0.604
13,LCLC-97TM1,0.444
14,NCI-H2085,0.906
15,NCI-H727,0.792
16,201T,1.06
17,LOU-NH91,0.899
18,NCI-H1666,0.755
19,NCI-H650,1.04
20,NCI-H1993,0.552
21,NCI-H647,0.707
22,NCI-H2126,1.14
23,NCI-H1755,0.892
24,PC-3 [JPC-3],1
25,NCI-H2087,0.659
26,NCI-H441,0.933
27,HOP-62,0.74
28,NCI-H2170,0.978

# Same assay, conditions: first compound 0.253 µM
row,Cell Line,relative viability
1,NCI-H1395,0.949
2,NCI-H358,0.684
3,HCC-78,0.629
4,EKVX,0.555
5,LK-2,1.66
6,PC-14,0.917
7,LXF-289,0.994
8,LC-2-ad,0.918
9,NCI-H1651,0.89
10,HCC-827,1.13
11,LCLC-103H,0.846
12,RERF-LC-KJ,0.862
13,NCI-H3122,1
14,BEN,0.459
15,LCLC-97TM1,0.992
16,NCI-H2085,0.979
17,A-427,1.03

row,Cell Line,relative viability
1,NCI-H727,0.951
2,NCI-H838,1.07
3,NCI-H1793,0.732
4,201T,1.15
5,LOU-NH91,0.941
6,NCI-H1666,1.06
7,NCI-H650,1.01
8,NCI-H1993,0.818
9,NCI-H647,1.34
10,NCI-H2126,1.22
11,NCI-H1755,1.01
12,PC-3 [JPC-3],1.04
13,NCI-H2087,1.15
14,NCI-H441,1.26
15,HOP-62,1.14
16,NCI-H2170,0.961

# Same assay, conditions: first compound 0.8 µM
row,Cell Line,relative viability
1,NCI-H1395,0.99
2,NCI-H358,0.801
3,HCC-78,0.594
4,EKVX,0.801
5,EPLC-272H,0.653
6,LK-2,1.4
7,PC-14,0.991
8,LXF-289,1.01
9,LC-2-ad,0.899
10,NCI-H1651,0.709
11,HCC-827,1.09
12,LCLC-103H,0.832
13,RERF-LC-KJ,0.915
14,NCI-H3122,0.913
15,BEN,0.454
16,LCLC-97TM1,0.96
17,NCI-H2085,1.12

row,Cell Line,relative viability
1,A-427,1.16
2,NCI-H727,1.31
3,NCI-H838,1
4,NCI-H1793,0.63
5,201T,1.24
6,LOU-NH91,0.915
7,NCI-H1666,0.985
8,NCI-H650,1.04
9,NCI-H1993,0.836
10,NCI-H647,1.09
11,NCI-H2126,1.15
12,NCI-H1755,0.915
13,PC-3 [JPC-3],1.09
14,NCI-H2087,1.17
15,NCI-H441,0.943
16,HOP-62,1.08
17,NCI-H2170,0.994

# Same assay, conditions: first compound 2.53 µM
row,Cell Line,relative viability
1,NCI-H1395,1.04
2,NCI-H358,0.575
3,HCC-78,0.585
4,EKVX,0.762
5,EPLC-272H,0.704
6,LK-2,0.949
7,PC-14,1.04
8,LXF-289,1.02
9,LC-2-ad,0.906
10,NCI-H1651,0.723
11,HCC-827,1.05
12,LCLC-103H,0.789
13,RERF-LC-KJ,0.947
14,NCI-H3122,0.993
15,BEN,0.641
16,LCLC-97TM1,0.942
17,NCI-H2085,0.84

row,Cell Line,relative viability
1,A-427,1.12
2,NCI-H727,0.819
3,NCI-H838,0.995
4,NCI-H1793,0.656
5,201T,1.06
6,LOU-NH91,0.908
7,NCI-H1666,0.963
8,NCI-H650,1.02
9,NCI-H1993,0.892
10,NCI-H647,1.2
11,NCI-H2126,1.2
12,NCI-H1755,0.941
13,PC-3 [JPC-3],1.08
14,NCI-H2087,1.03
15,NCI-H441,1.03
16,HOP-62,1.01
17,NCI-H2170,1.03

# Same assay, conditions: first compound 8 µM
row,Cell Line,relative viability
1,NCI-H1395,0.99
2,NCI-H358,0.57
3,HCC-78,0.6
4,EKVX,0.849
5,EPLC-272H,0.662
6,LK-2,1.03
7,PC-14,0.996
8,LXF-289,1.03
9,LC-2-ad,0.816
10,NCI-H1651,0.694
11,HCC-827,0.996
12,LCLC-103H,0.761
13,RERF-LC-KJ,0.917
14,NCI-H3122,0.947
15,BEN,0.479
16,LCLC-97TM1,0.923
17,NCI-H2085,0.991

row,Cell Line,relative viability
1,A-427,1
2,NCI-H727,0.836
3,NCI-H838,0.982
4,NCI-H1793,0.63
5,201T,0.999
6,LOU-NH91,0.861
7,NCI-H1666,1.06
8,NCI-H650,0.936
9,NCI-H1993,0.777
10,NCI-H647,1.38
11,NCI-H2126,1.26
12,NCI-H1755,0.946
13,PC-3 [JPC-3],0.962
14,NCI-H2087,0.962
15,NCI-H441,0.844
16,HOP-62,1.1
17,NCI-H2170,1.02

# Compound: C[C@]1(c2nc3c(C(N)=O)cccc3[nH]2)CCCN1 [Veliparib] + Cc1nc(NC(=O)N2CCC[C@H]2C(N)=O)sc1-c1ccnc(C(C)(C)C(F)(F)F)c1 [Alpelisib] (partner 2 µM)
# Test: as above
# Conditions: first compound 0.02 µM
# Method in brief: as §1
row,Cell Line,relative viability
1,HCC-78,0.455
2,EKVX,0.784
3,PC-14,0.923
4,LXF-289,1.02
5,NCI-H1651,0.889
6,HCC-827,0.922
7,LCLC-103H,1.13
8,RERF-LC-KJ,0.715
9,NCI-H3122,0.785
10,BEN,0.925
11,LCLC-97TM1,0.263
12,NCI-H2085,1.07
13,A-427,1.1
14,NCI-H727,0.512
15,NCI-H838,0.971
16,NCI-H1793,0.819
17,201T,1.02
18,LOU-NH91,0.698
19,NCI-H1666,1.04
20,NCI-H650,1.28
21,NCI-H1993,0.655
22,NCI-H647,1.38
23,NCI-H2126,0.76
24,NCI-H1755,0.898
25,PC-3 [JPC-3],1.1
26,NCI-H2087,1.05
27,NCI-H441,0.735
28,HOP-62,1.11
29,NCI-H2170,0.826

# Same assay, conditions: first compound 0.06325 µM
row,Cell Line,relative viability
1,NCI-H1395,1.37
2,NCI-H358,0.763
3,HCC-78,0.406
4,EKVX,0.867
5,EPLC-272H,0.951
6,LK-2,1.01
7,PC-14,0.862
8,LXF-289,1.02
9,LC-2-ad,0.783
10,NCI-H1651,0.83
11,HCC-827,1.02
12,LCLC-103H,0.896
13,RERF-LC-KJ,0.891
14,NCI-H3122,0.755
15,BEN,0.982
16,LCLC-97TM1,0.271
17,NCI-H2085,0.977

row,Cell Line,relative viability
1,A-427,1.01
2,NCI-H727,0.572
3,NCI-H838,0.843
4,NCI-H1793,0.582
5,201T,1.02
6,LOU-NH91,0.72
7,NCI-H1666,0.709
8,NCI-H650,0.983
9,NCI-H1993,0.615
10,NCI-H647,1.07
11,NCI-H2126,0.745
12,NCI-H1755,0.939
13,PC-3 [JPC-3],0.981
14,NCI-H2087,1.02
15,NCI-H441,0.886
16,HOP-62,0.928
17,NCI-H2170,0.806

# Same assay, conditions: first compound 0.2 µM
row,Cell Line,relative viability
1,NCI-H1395,0.873
2,NCI-H358,0.953
3,HCC-78,0.387
4,EKVX,0.85
5,EPLC-272H,1.1
6,LK-2,1.38
7,PC-14,0.796
8,LXF-289,0.997
9,LC-2-ad,0.846
10,NCI-H1651,0.922
11,HCC-827,0.986
12,LCLC-103H,0.936
13,RERF-LC-KJ,0.96
14,NCI-H3122,0.768
15,BEN,1.2
16,LCLC-97TM1,0.258
17,NCI-H2085,0.843

row,Cell Line,relative viability
1,A-427,1.06
2,NCI-H727,0.598
3,NCI-H838,1.08
4,NCI-H1793,0.755
5,201T,1.02
6,LOU-NH91,0.76
7,NCI-H1666,0.857
8,NCI-H650,1.23
9,NCI-H1993,0.726
10,NCI-H647,1.42
11,NCI-H2126,0.725
12,NCI-H1755,0.942
13,PC-3 [JPC-3],0.959
14,NCI-H2087,1.09
15,NCI-H441,0.716
16,HOP-62,1.15
17,NCI-H2170,0.931

# Same assay, conditions: first compound 0.6325 µM
row,Cell Line,relative viability
1,NCI-H1395,1.09
2,NCI-H358,0.775
3,HCC-78,0.36
4,EKVX,0.837
5,EPLC-272H,0.901
6,LK-2,0.996
7,PC-14,0.886
8,LXF-289,1.01
9,LC-2-ad,0.926
10,NCI-H1651,0.828
11,HCC-827,0.971
12,LCLC-103H,1.06
13,RERF-LC-KJ,0.761
14,NCI-H3122,0.76
15,BEN,0.992
16,NCI-H2085,0.875
17,A-427,1.06

row,Cell Line,relative viability
1,NCI-H727,0.538
2,NCI-H838,0.935
3,NCI-H1793,0.661
4,201T,1.01
5,LOU-NH91,0.706
6,NCI-H1666,0.829
7,NCI-H650,0.999
8,NCI-H1993,0.639
9,NCI-H647,1.22
10,NCI-H2126,0.655
11,NCI-H1755,0.881
12,PC-3 [JPC-3],1.03
13,NCI-H2087,1.07
14,NCI-H441,0.737
15,HOP-62,0.836
16,NCI-H2170,0.786

# Same assay, conditions: first compound 2 µM
row,Cell Line,relative viability
1,NCI-H1395,0.74
2,NCI-H358,1.01
3,HCC-78,0.322
4,EKVX,0.902
5,EPLC-272H,0.924
6,LK-2,1.1
7,PC-14,0.893
8,LXF-289,1.06
9,LC-2-ad,0.897
10,NCI-H1651,0.856
11,HCC-827,0.899
12,LCLC-103H,0.949
13,RERF-LC-KJ,0.74
14,NCI-H3122,0.752
15,BEN,1.05
16,LCLC-97TM1,0.232
17,NCI-H2085,0.966
18,A-427,1.14
19,NCI-H727,0.488
20,NCI-H838,1
21,NCI-H1793,0.69
22,201T,0.973
23,LOU-NH91,0.748
24,NCI-H1666,1
25,NCI-H650,1.2
26,NCI-H1993,0.75
27,NCI-H647,1.11
28,NCI-H2126,0.739
29,NCI-H1755,0.922
30,PC-3 [JPC-3],0.993
